Laboratory results from PubChem BioAssay AID330 (DTP/NCI, 2004).
Values joined by “and” are separate entries in the source; they are usually repeats but may differ in a detail not shown here. Equal entries are not always repeated. Toxic doses and inconclusive results are not listed.

Test system: P388 leukemia ip, CD2F1 mice, survival T/C
Experiment: NCI In Vivo Anticancer Drug Screen. Data for tumor model P388 Leukemia (intraperitoneal) in CD2F1 (CDF1) mice
Conditions: endpoint: median survival time, higher = longer survival
In short: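 Mice carrying the transplanted tumor received test compound or vehicle. Survival was recorded in each group, and the value is the treated-group measurement divided by that of the vehicle-treated control group.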

[1] = dose: 60.0 mg/kg/injection, schedule: Q01DX005 (ip), vehicle: Klucel (hydroxypropylcellulose) (HPC)
[2] = dose: 120.0 mg/kg/injection, schedule: Q01DX005 (ip), vehicle: Klucel (hydroxypropylcellulose) (HPC)
[3] = dose: 240.0 mg/kg/injection, schedule: Q01DX005 (ip), vehicle: Klucel (hydroxypropylcellulose) (HPC)
[4] = dose: 50.0 mg/kg/injection, schedule: Q01DX009 (ip), vehicle: Klucel (hydroxypropylcellulose) (HPC)
[5] = dose: 100.0 mg/kg/injection, schedule: Q01DX009 (ip), vehicle: Klucel (hydroxypropylcellulose) (HPC)
[6] = dose: 200.0 mg/kg/injection, schedule: Q01DX009 (ip), vehicle: Klucel (hydroxypropylcellulose) (HPC)
[7] = dose: 60.0 mg/kg/injection, schedule: Q01DX005 (ip), vehicle: saline with Tween-80
[8] = dose: 120.0 mg/kg/injection, schedule: Q01DX005 (ip), vehicle: saline with Tween-80
[9] = dose: 240.0 mg/kg/injection, schedule: Q01DX005 (ip), vehicle: saline with Tween-80
[10] = dose: 100.0 mg/kg/injection, schedule: Q04DX003 (ip), vehicle: Klucel (hydroxypropylcellulose) (HPC)
[11] = dose: 200.0 mg/kg/injection, schedule: Q04DX003 (ip), vehicle: Klucel (hydroxypropylcellulose) (HPC)
[12] = dose: 12.5 mg/kg/injection, schedule: Q01DX009 (ip), vehicle: saline with Tween-80
[13] = dose: 25.0 mg/kg/injection, schedule: Q01DX009 (ip), vehicle: saline with Tween-80
[14] = dose: 50.0 mg/kg/injection, schedule: Q01DX009 (ip), vehicle: saline with Tween-80

Compound: CC(=O)Nc1cc(N)c2c(c1)CCCC2=O
- T/C [1]: 97 % of control
- T/C [2]: 96 % of control
- T/C [3]: 90 % of control

Compound: Cc1c(Cl)cccc1N=Cc1ccc(C=Nc2cccc(Cl)c2C)cc1
- T/C [4]: 94 % of control
- T/C [5]: 92 % of control
- T/C [6]: 91 % of control

Compound: COc1cc([C@H]2c3c(cc(OC)c(OC)c3OC)CC3COC(=O)[C@@H]32)cc2c1OCO2 (some centres not stated)
- T/C [7]: 98 % of control
- T/C [8]: 92 % of control
- T/C [9]: 90 % of control

Compound: O=C(NC(CC1CCC2OCOC2C1)C(=O)O)c1ccccc1 (configuration not stated)
- T/C [7]: 111 % of control
- T/C [8]: 102 % of control
- T/C [9]: 105 % of control

Compound: O=C(c1ccccc1)C(c1ccccc1)n1ncc2c1CCC2 (configuration not stated)
- T/C [10]: 105 % of control
- T/C [11]: 100 % of control
- T/C (dose: 400.0 mg/kg/injection, schedule: Q04DX003 (ip), vehicle: Klucel (hydroxypropylcellulose) (HPC)): 103 % of control

Compound: C/C(=N\NC(=S)Nc1cccc2cccc(S(=O)(=O)O)c12)c1ccccn1
- T/C (dose: 50.0 mg/kg/injection, schedule: Q01DX005 (ip), vehicle: saline with Tween-80): 102 % of control
- T/C (dose: 100.0 mg/kg/injection, schedule: Q01DX005 (ip), vehicle: saline with Tween-80): 100 % of control
- T/C (dose: 200.0 mg/kg/injection, schedule: Q01DX005 (ip), vehicle: saline with Tween-80): 112 % of control

Compound: CCN(CC)CCCC(C)NC(Cc1ccccc1)c1cccc2ccccc12 (configuration not stated)
- T/C (dose: 25.0 mg/kg/injection, schedule: Q01DX005 (ip), vehicle: suspension in saline): 100 % of control
- T/C (dose: 50.0 mg/kg/injection, schedule: Q01DX005 (ip), vehicle: suspension in saline): 106 % of control

Compound: c1ccc(CN2C3Oc4ccccc4C2Oc2ccccc23)cc1
- T/C [12]: 100 % of control
- T/C [13]: 100 % of control
- T/C [14]: 91 % of control

Compound: O=[N+]([O-])c1ccccc1S(=O)(=O)N(CCCCCN(S(=O)(=O)c1ccccc1[N+](=O)[O-])S(=O)(=O)c1ccccc1[N+](=O)[O-])S(=O)(=O)c1ccccc1[N+](=O)[O-]
- T/C [1]: 89 % of control
- T/C [2]: 87 % of control
- T/C [3]: 87 % of control

Compound: COc1ccc(-n2nc3c(ccc4ccccc43)c2NC2CCCCC2)cc1
- T/C [7]: 104 % of control
- T/C [8]: 98 % of control
- T/C [9]: 102 % of control

Compound: CCCNCC(O)COc1ccc2c3c(c(=O)oc2c1)CCC3 (configuration not stated)
- T/C [1]: 96 % of control
- T/C [2]: 96 % of control

Compound: Cc1oc(-c2cccc(F)c2)nc1C(N)=O
- T/C [4]: 102 % of control
- T/C [5]: 102 % of control
- T/C [6]: 100 % of control

Compound: COc1ccc2c(c1OC)C(=O)O/C2=C\c1cc2c(cc1CCN(C)C)OCO2
- T/C (dose: 12.5 mg/kg/injection, schedule: Q01DX001 (ip), vehicle: saline + alcohol): 99 % of control
- T/C (dose: 25.0 mg/kg/injection, schedule: Q01DX001 (ip), vehicle: saline + alcohol): 98 % of control
- T/C (dose: 50.0 mg/kg/injection, schedule: Q01DX001 (ip), vehicle: saline + alcohol): 99 % of control

Compound: COc1ccc(C2[C@H](C(=O)O)c3ccccc3C(=O)N2Cc2ccccc2)cc1 (some centres not stated)
- T/C (dose: 100.0 mg/kg/injection, schedule: Q04DX002 (ip), vehicle: saline with Tween-80): 101 % of control
- T/C (dose: 200.0 mg/kg/injection, schedule: Q04DX002 (ip), vehicle: saline with Tween-80): 104 % of control
- T/C (dose: 400.0 mg/kg/injection, schedule: Q04DX002 (ip), vehicle: saline with Tween-80): 103 % of control

Compound: CCCCCCCCC[N+]1(CC)CCCCC1
- T/C (dose: 3.12 mg/kg/injection, schedule: Q01DX009 (ip), vehicle: saline): 121 % of control
- T/C (dose: 6.25 mg/kg/injection, schedule: Q01DX009 (ip), vehicle: saline): 121 % of control
- T/C (dose: 12.5 mg/kg/injection, schedule: Q01DX009 (ip), vehicle: saline): 86 % of control

Compound: O=C1OCc2c1cc1n(c2=O)Cc2cc3ccccc3nc2-1
- T/C (dose: 1.0 mg/kg/injection, schedule: Q01DX009 (ip), vehicle: saline with Tween-80): 99 % of control and 114 % of control and 115 % of control
- T/C (dose: 2.0 mg/kg/injection, schedule: Q01DX009 (ip), vehicle: saline with Tween-80): 105 % of control

Compound: C=C1C(=O)O[C@H]2C3OC3(C)CC/C=C(/C(=O)OC)[C@@H](OC(C)=O)[C@H](OC(=O)C3(C)OC3C)[C@H]12 (some centres not stated)
- T/C (dose: 1.87 mg/kg/injection, schedule: Q01DX009 (ip), vehicle: Klucel (hydroxypropylcellulose) (HPC)): 112 % of control
- T/C (dose: 3.75 mg/kg/injection, schedule: Q01DX009 (ip), vehicle: Klucel (hydroxypropylcellulose) (HPC)): 108 % of control
- T/C (dose: 7.5 mg/kg/injection, schedule: Q01DX009 (ip), vehicle: Klucel (hydroxypropylcellulose) (HPC)): 107 % of control

Compound: COc1ccc(C=Nc2ccccc2)cc1
- T/C (dose: 100.0 mg/kg/injection, schedule: Q01DX009 (ip), vehicle: saline with Tween-80): 100 % of control
- T/C (dose: 200.0 mg/kg/injection, schedule: Q01DX009 (ip), vehicle: saline with Tween-80): 118 % of control
- T/C (dose: 400.0 mg/kg/injection, schedule: Q01DX009 (ip), vehicle: saline with Tween-80): 118 % of control

Compound: CCn1c2nc(=O)n(C)c(=O)c-2cc2cc(C)ccc21
- T/C [12]: 92 % of control
- T/C [13]: 101 % of control
- T/C [14]: 109 % of control

Compound: O=C1Nc2ccccc2C12Nc1ccccc1N2
- T/C (dose: 25.0 mg/kg/injection, schedule: Q04DX003 (ip), vehicle: Klucel (hydroxypropylcellulose) (HPC)): 108 % of control
- T/C (dose: 50.0 mg/kg/injection, schedule: Q04DX003 (ip), vehicle: Klucel (hydroxypropylcellulose) (HPC)): 95 % of control
- T/C [10]: 97 % of control
- T/C [11]: 90 % of control and 91 % of control

Compound: CCN(CC)CCNc1ccc(CO)c2sc3ccccc3c(=O)c12
- T/C (dose: 5.0 mg/kg/injection, schedule: Q01DX005 (ip), vehicle: water): 110 % of control
- T/C (dose: 5.0 mg/kg/injection, schedule: Q01DX009 (ip), vehicle: water): 113 % of control
- T/C (dose: 6.25 mg/kg/injection, schedule: Q01DX005 (ip), vehicle: saline): 104 % of control
- T/C (dose: 6.25 mg/kg/injection, schedule: Q01DX005 (iv), vehicle: saline): 100 % of control
- T/C (dose: 10.0 mg/kg/injection, schedule: Q01DX005 (ip), vehicle: water): 106 % of control
- T/C (dose: 10.0 mg/kg/injection, schedule: Q01DX009 (ip), vehicle: water): 116 % of control
- T/C (dose: 10.36 mg/kg/injection, schedule: Q01DX005 (ip), vehicle: water): 118 % of control
- T/C (dose: 12.5 mg/kg/injection, schedule: Q01DX005 (ip), vehicle: saline): 101 % of control
- T/C (dose: 12.5 mg/kg/injection, schedule: Q01DX005 (iv), vehicle: saline): 104 % of control
- T/C (dose: 12.5 mg/kg/injection, schedule: Q01DX009 (ip), vehicle: water): 109 % of control
- T/C (dose: 17.28 mg/kg/injection, schedule: Q01DX005 (ip), vehicle: water): 109 % of control
- T/C (dose: 20.0 mg/kg/injection, schedule: Q01DX005 (ip), vehicle: water): 104 % of control
- T/C (dose: 20.0 mg/kg/injection, schedule: Q01DX009 (ip), vehicle: water): 118 % of control
- T/C (dose: 25.0 mg/kg/injection, schedule: Q01DX005 (ip), vehicle: saline): 109 % of control
- T/C (dose: 25.0 mg/kg/injection, schedule: Q01DX005 (iv), vehicle: saline): 108 % of control
- T/C (dose: 25.0 mg/kg/injection, schedule: Q01DX009 (ip), vehicle: water): 122 % of control
- T/C (dose: 28.8 mg/kg/injection, schedule: Q01DX005 (ip), vehicle: water): 109 % of control
- T/C (dose: 50.0 mg/kg/injection, schedule: Q01DX005 (iv), vehicle: saline): 117 % of control
- T/C (dose: 50.0 mg/kg/injection, schedule: Q01DX009 (ip), vehicle: water): 156 % of control
- T/C (dose: 80.0 mg/kg/injection, schedule: Q01DX005 (ip), vehicle: water): 151 % of control and 182 % of control
- T/C (dose: 100.0 mg/kg/injection, schedule: Q01DX009 (ip), vehicle: water): 100 % of control
- T/C (dose: 100.0 mg/kg/injection, schedule: Q04DX003 (ip), vehicle: saline with Tween-80): 118 % of control
- T/C (dose: 200.0 mg/kg/injection, schedule: Q04DX003 (ip), vehicle: saline sonified): 150 % of control
- T/C (dose: 400.0 mg/kg/injection, schedule: Q04DX003 (ip), vehicle: saline with Tween-80): 90 % of control
